In a compilation of properties of binary mixtures (doi:10.1016/j.molliq.2022.119052):

Test: xn = mol fraction of the nth substance listed
Conditions: 100 kPa, x1 = 0.333

viscosity (298.15 K) [mPa·s]	viscosity (313.15 K) [mPa·s]	viscosity (323.15 K) [mPa·s]	viscosity (333.15 K) [mPa·s]	viscosity (303.15 K) [mPa·s]	SMILES
79.9	45.3	32	23	–	CCn1cc[nH+]c1.[Cl-] + OCC(O)CO
156.4	85.1	58.5	41.2	–	CC[n+]1ccn(C)c1.[Cl-] + OCC(O)CO
–	–	49.1	–	103.1	Cn1cc[nH+]c1.[Cl-] + OCC(O)CO
